Data as given in patent US12331068B2, “Compositions and methods for inhibiting CD73” (Peloton Therapeutics, Inc., priority 2018, dated 2025).

Assays:
[1] = molecular target: T1, CD73 on U138 human neuroglioma cells (Homo sapiens, UniProt P21589); assay: CD73 Cell-Based Assay (inorganic phosphate from AMP, malachite green); conditions: AMP substrate, 2 hours at 37° C., read-out: CD73 Cell-Based assay IC50
T1 construct: U138 cells were obtained from ATCC and cultured in DMEM with 10% FBS; host or cells: U138 human neuroglioma cells
T1 sequence (P21589 27-549): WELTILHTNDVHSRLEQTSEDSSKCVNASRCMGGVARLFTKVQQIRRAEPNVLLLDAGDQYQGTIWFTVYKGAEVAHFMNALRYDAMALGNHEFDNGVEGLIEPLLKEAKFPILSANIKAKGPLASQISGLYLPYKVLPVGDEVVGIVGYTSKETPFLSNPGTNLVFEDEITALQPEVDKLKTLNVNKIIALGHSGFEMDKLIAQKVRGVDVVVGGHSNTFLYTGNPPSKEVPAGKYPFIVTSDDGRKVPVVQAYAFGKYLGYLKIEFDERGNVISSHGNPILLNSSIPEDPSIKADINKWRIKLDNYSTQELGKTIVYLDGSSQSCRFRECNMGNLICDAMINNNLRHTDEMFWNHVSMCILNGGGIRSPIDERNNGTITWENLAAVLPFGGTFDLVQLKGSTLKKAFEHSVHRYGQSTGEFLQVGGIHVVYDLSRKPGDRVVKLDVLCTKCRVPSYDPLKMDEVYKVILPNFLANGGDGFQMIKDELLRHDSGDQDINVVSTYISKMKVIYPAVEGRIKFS
Summary of the method: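 U138 cells, seeded the day before at 2500 per well, were washed and given AMP substrate (200 μM in the added mixture, before dilution into the buffer) together with compound. After 2 h at 37 °C in 5% CO2, inorganic phosphate in the supernatant was measured with malachite green.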

[2] = molecular target: T2, Human CD73 (Homo sapiens, UniProt P21589); assay: CD73 Enzyme Assay (EnzChek PNP/MESG kinetic readout of AMP hydrolysis); type: biochemical; conditions: 0.25 nM hCD73, 25 μM AMP; read-out: CD73 Enzyme Assay IC50
T2 construct: purchased R&D Systems; host or cells: CHO cells
T2 sequence (P21589 27-549): T1 sequence (P21589 27-549)
Summary of the method: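 Compounds tested as 15-point, 3-fold dilution series (300 μM to 0.0002 μM) in DMSO. Kinetic absorbance at 360 nm read every minute for 10–20 min, initial velocity taken from the linear portion.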

Compound | IC50 [1] [µM] | IC50 [2] [µM]
N#Cc1c(Cl)nc2c(ccn2[C@@H]2O[C@H](CO[C@H](CO)P(=O)(O)O)[C@@H](O)[C@H]2O)c1N1CC2CCCC2C1 (stereo partly drawn) [Compound 50, ((1S)-1-(((2R,3S,4R,5R)-5-(6-chloro-5-cyano-4-(hexahydrocyclopenta[c]pyrrol-2 (1H)-yl)-1H-pyrrolo[2,3-b]pyridin-1-yl)-3,4-dihydroxytetrahydrofuran-2-yl)methoxy)-2-hydroxyethyl)phosphonic acid] | < 0.01 | < 0.01
N#Cc1c(Cl)nc2c(ccn2[C@@H]2O[C@H](COCP(=O)(O)O)[C@@H](O)[C@H]2O)c1NC1CC2(CC2)C1 [Compound 157] | < 0.01 | < 0.01
C[C@H](Nc1c(C#N)c(Cl)nc2c1cnn2[C@@H]1O[C@H](COP(=O)(O)CP(=O)(O)O)[C@@H](O)[C@H]1O)c1ccc(F)cc1 [Compound 247] | < 0.01 | < 0.01
N#Cc1c(Cl)nc2c(ccn2[C@@H]2O[C@H](COP(=O)(O)CP(=O)(O)O)[C@@H](O)[C@H]2O)c1NC1CC2CC2C1 (stereo partly shown) [Compound 28] | < 0.01 | < 0.01
N#Cc1c(Cl)nc2c(ncn2[C@@H]2O[C@H](COCP(=O)(O)O)[C@@H](O)[C@H]2O)c1N1CCC(F)(F)C1 [Compound 94, ((((2R,3S,4R,5R)-5-(5-chloro-6-cyano-7-(3,3-difluoropyrrolidin-1-yl)-3H-imidazo[4,5-b]pyridin-3-yl)-3,4-dihydroxytetrahydrofuran-2-yl)methoxy)methyl)phosphonic acid] | < 0.01 | < 0.01
C[C@H](Nc1c(C#N)c(Cl)nc2c1ccn2[C@@H]1O[C@H](COCP(=O)(O)O)[C@@H](O)[C@H]1O)c1ccc(F)cc1 [Compound 8] | < 0.01 | < 0.01
N#Cc1c(Cl)nc2c(cnn2[C@@H]2O[C@H](COCP(=O)(O)O)[C@@H](O)[C@H]2O)c1N1CC[C@H](F)C1 [Compound 79] | < 0.01 | < 0.01
N#Cc1c(Cl)nc2c(ncn2[C@@H]2O[C@H](CS(=O)(=O)CP(=O)(O)O)[C@@H](O)[C@H]2O)c1NC1CC(F)C1 (stereo partly shown) [Compound 117] | < 0.01 | < 0.01
N#Cc1c(Cl)nc2c(ncn2[C@@H]2O[C@H](COP(=O)(O)CP(=O)(O)O)[C@@H](O)[C@H]2O)c1NC1CCCC1 [Compound 209] | < 0.01 | < 0.01
N#Cc1c(Cl)nc2c(ncn2[C@@H]2O[C@H](COCP(=O)(O)O)[C@@H](O)[C@H]2O)c1N1CC2CCCC2C1 (stereo partly shown) [Compound 57] | < 0.01 | < 0.01
N#Cc1nc2c(ccn2[C@@H]2O[C@H](CS(=O)(=O)CP(=O)(O)O)[C@@H](O)[C@H]2O)c(NC2CC(F)(F)C2)c1Cl [Compound 142] | < 0.01 | < 0.01
C[C@@H](Nc1c(C#N)c(Cl)nc2c1ccn2[C@@H]1O[C@H](COP(=O)(O)CP(=O)(O)O)[C@@H](O)[C@H]1O)c1ccc(F)cc1 [Compound 34] | < 0.01 | < 0.01
N#Cc1c(Cl)nc2c(cnn2[C@@H]2O[C@H](COCP(=O)(O)O)[C@@H](O)[C@H]2O)c1N1C[C@@H](F)[C@H](F)C1 [Compound 80] | < 0.01 | < 0.01
N#Cc1c(Cl)nc2c(ccn2[C@@H]2O[C@H](CS(=O)(=O)CP(=O)(O)O)[C@@H](O)[C@H]2O)c1NC1CC2CC2C1 (stereo partly shown) [Compound 33] | < 0.01 | < 0.01
N#Cc1c(Cl)nc2c(ccn2[C@@H]2O[C@H](CS(=O)(=O)CP(=O)(O)O)[C@@H](O)[C@@H]2F)c1N1CCC(F)(F)C1 [Compound 171] | < 0.01 | < 0.01
CC(C)Nc1c(C#N)c(Cl)nc2c1ccn2[C@@H]1O[C@H](COP(=O)(O)CP(=O)(O)O)[C@@H](O)[C@H]1O [Compound 207] | < 0.01 | < 0.01
Cc1nc2c(ccn2[C@@H]2O[C@H](COCP(=O)(O)O)[C@@H](O)[C@H]2O)c(NC2CCCC2)c1C#N [Compound 44] | < 0.01 | < 0.01
N#Cc1c(Cl)nc2c(ccn2[C@@H]2O[C@H](COCP(=O)(O)O)[C@@H](O)[C@H]2O)c1N1CC[C@@H](F)C1 [Compound 66] | < 0.01 | < 0.01
N#Cc1nc2c(ccn2[C@@H]2O[C@H](CS(=O)(=O)CP(=O)(O)O)[C@@H](O)[C@H]2O)c(N2C[C@@H](F)[C@@H](F)C2)c1Cl [Compound 138] | < 0.01 | 0.01 to 0.1
C[C@H](Nc1c(C#N)c(Cl)nc2c1ccn2[C@@H]1O[C@H](CS(=O)(=O)CP(=O)(O)O)[C@@H](O)[C@H]1O)c1ccc(F)cc1 [Compound 18, (((((2S,3S,4R,5R)-5-(6-chloro-5-cyano-4-(((S)-1-(4-fluorophenyl)ethyl)amino)-1H-pyrrolo[2,3-b]pyridin-1-yl)-3,4-dihydroxytetrahydrofuran-2-yl)methyl)sulfonyl)methyl)phosphonic acid] | < 0.01 | < 0.01
N#Cc1c(Cl)nc2c(cnn2[C@@H]2O[C@H](COCP(=O)(O)O)[C@@H](O)[C@H]2O)c1NC1CCCC1 [Compound 69, ((((2R,3S,4R,5R)-5-(6-chloro-5-cyano-4-(cyclopentylamino)-1H-pyrazolo[3,4-b]pyridin-1-yl)-3,4-dihydroxytetrahydrofuran-2-yl)methoxy)methyl)phosphonic acid] | < 0.01 | < 0.01
N#Cc1c(Cl)nc2c(ccn2[C@@H]2O[C@H](COP(=O)(O)CP(=O)(O)O)[C@@H](O)[C@H]2O)c1NC1CCC1 [Compound 36] | < 0.01 | < 0.01
N#Cc1c(Cl)nc2c(ccn2[C@@H]2O[C@H](COCP(=O)(O)O)[C@@H](O)[C@H]2O)c1N1C[C@@H](F)[C@@H](F)C1 [Compound 67, ((((2R,3S,4R,5R)-5-(6-chloro-5-cyano-4-((3S,4R)-3,4-difluoropyrrolidin-1-yl)-1H-pyrrolo[2,3-b]pyridin-1-yl)-3,4-dihydroxytetrahydrofuran-2-yl)methoxy)methyl)phosphonic acid] | < 0.01 | < 0.01
N#Cc1c(Cl)nc2c(ccn2[C@@H]2O[C@H](CS(=O)(=O)CP(=O)(O)O)[C@@H](O)[C@H]2O)c1N[C@H]1C[C@H](F)C1 [Compound 76, (((((2S,3S,4R,5R)-5-(6-chloro-5-cyano-4-(((1r,3R)-3-fluorocyclobutyl)amino)-1H-pyrrolo[2,3-b]pyridin-1-yl)-3,4-dihydroxytetrahydrofuran-2-yl)methyl)sulfonyl)methyl)phosphonic acid] | < 0.01 | < 0.01
N#Cc1c(Cl)nc2c(cnn2[C@@H]2O[C@H](COP(=O)(O)CP(=O)(O)O)[C@@H](O)[C@H]2O)c1NC1CCCC1 [Compound 244] | < 0.01 | < 0.01
CN(c1c(C#N)c(Cl)nc2c1ccn2[C@@H]1O[C@H](CS(=O)(=O)CP(=O)(O)O)[C@@H](O)[C@H]1O)C1CC(F)(F)C1 [Compound 154] | < 0.01 | < 0.01
N#Cc1c(Cl)nc2c(ccn2[C@@H]2O[C@H](COP(=O)(O)CP(=O)(O)O)[C@@H](O)[C@H]2O)c1N1CC2CCCC2C1 (stereo partly shown) [Compound 43] | < 0.01 | < 0.01
N#Cc1c(Cl)nc2c(cnn2[C@@H]2O[C@H](COCP(=O)(O)O)[C@@H](O)[C@H]2O)c1N1CC[C@@H](F)C1 [Compound 90] | < 0.01 | < 0.01
N#Cc1c(Cl)nc2c(ncn2[C@@H]2O[C@H](CS(=O)(=O)CP(=O)(O)O)[C@@H](O)[C@H]2O)c1N1CCC(F)(F)C1 [Compound 118] | < 0.01 | < 0.01
